This is an account of results in PMC9966726, “Methylene Blue Inhibits Cromakalim-Activated K^+ Currents in Follicle-Enclosed Oocytes” (Membranes, 2023).

As usually defined, the Kd is the constant that tells how readily two partners part at equilibrium. Low values mean a tighter complex, high ones a looser complex. A word on the IC50: it is the concentration needed to halve the response being measured. Low readings indicate greater potency, high ones weaker potency. A word on the EC50: it is the concentration that produces a half-maximal response. A low value points to a more potent agent.

Test [1] deals with T1, KATP channels of follicular cells (follicle-enclosed Xenopus oocytes).
T1 construct: gene kcnj11; native channel, endogenous to follicular cells; pore tetramer with one SUR per pore subunit; isoforms not determined
The experiment in a line: [3H]glibenclamide saturation binding, microsomal membranes, filtration. On the set-up: species or system Xenopus laevis. Particulars: labelled compound; control without MB; 50 mM HEPES, pH 7.5, 22 °C, 60 min; sulfonylurea receptor site.

Test [2] has the same test system. Briefly: two-electrode voltage clamp, cromakalim-activated K+ current, follicle-enclosed oocytes. Particulars: 100 μM cromakalim; 20 min MB preincubation; -20 mV; pH 7.5; noncompetitive, voltage-independent; slope 1.1. The format is cell-based, Xenopus laevis. On the technique in general: In two-electrode clamp one electrode senses voltage and the other passes current.

The test system is the same in test [3]. The test is described as above. The format is cell-based, Xenopus laevis. Particulars: channel opener; control without MB; -20 mV; pH 7.5; slope 0.91.

In test [1], `COc1ccc(Cl)cc1C(=O)NCCc1ccc(S(=O)(=O)NC(=O)NC2CCCCC2)cc1` [[^3H]glibenclamide] displayed a Kd of 0.00121 ± 0.00014 µM. In test [2], `CN(C)c1ccc2nc3ccc(N(C)C)cc3[s+]c2c1` [MB, Methylene blue] showed a half-inhibitory concentration (IC50) of 22.4 µM. In test [3], `CC1(C)Oc2ccc(C#N)cc2C(N2CCCC2=O)C1O` (stereo not drawn) [CKL, cromakalim] yielded a concentration giving a half-maximal response (EC50) of 194 ± 21 µM.
